Legend:
[1] = test system: rat; conditions: Subchronic oral toxicity in rodents, sprague dawley, Feed, dose end: 90 day, group: systemic, systemic / clinical chemistry / alkaline phosphatase (alp/alk) / alkaline phosphatase (alp/alk) + systemic / hematology / mean corpuscular …
[2] = test system: rat; conditions: Combined chronic toxicity/carcinogenicity, sprague dawley, Oral, Feed, dose end: 24 month, group: systemic
[3] = test system: dog; conditions: Chronic toxicity, beagle, Oral, Feed, dose end: 1 year, group: systemic
[4] = test system: rat; conditions: Prenatal developmental toxicity study, sprague dawley, Oral, Gavage/Intubation, dose end: 15 GD
[5] = test system: dog; conditions: Subchronic oral toxicity in nonrodent, beagle, Feed, dose end: 90 day, group: systemic
[6] = test system: rabbit; conditions: Prenatal developmental toxicity study, himalayan, Oral, Gavage/Intubation, dose end: 18 GD
[7] = test system: dog; conditions: Chronic toxicity, beagle, Oral, Feed, dose end: 1 year, group: cholinesterase
[8] = test system: mouse; conditions: Combined chronic toxicity/carcinogenicity, b6c3f1, Oral, Feed, dose end: 2 year
[9] = test system: rat; conditions: Subchronic oral toxicity in rodents, wistar, Feed, dose end: 86 day
[10] = systemic / clinical chemistry / gamma glutamyl transferase (ggt) / gamma glutamyl transferase (ggt) + systemic / organ weight / kidney / …
[11] = systemic / hematology / anemia / anemia - hemolytic + systemic / hematology / erythrocyte (rbc) count differential / erythrocyte (rbc) + …
[12] = systemic / pathology microscopic / liver / hyperplasia + systemic / pathology microscopic / liver / hypertrophy + systemic / clinical …
[13] = group: developmental, developmental / developmental malformation / bone / supernumerary + developmental / developmental malformation / bone / unossified
[14] = group: maternal, systemic / in life observation / body weight / body weight gain + systemic / in life observation / clinical signs / salivation + systemic / …
[15] = systemic / in life observation / body weight / body weight gain + systemic / clinical chemistry / alanine aminotransferase (alt/sgpt) / …
[16] = group: cholinesterase, cholinesterase / cholinesterase / cholinesterase / erythrocyte cholinesterase (che)
[17] = group: maternal, reproductive / reproductive performance / resorptions / resorptions + reproductive / reproductive performance / aborted / aborted + systemic…
[18] = cholinesterase / cholinesterase / cholinesterase / brain cholinesterase (che) + cholinesterase / cholinesterase / cholinesterase / plasma …
[19] = cholinesterase / cholinesterase / cholinesterase / brain cholinesterase (che) + cholinesterase / cholinesterase / cholinesterase / …
[20] = group: systemic, systemic / in life observation / body weight / body weight + systemic / in life observation / body weight / body weight gain + systemic / in…
[21] = group: systemic, systemic / organ weight / adrenal gland / nos
[22] = group: cholinesterase, cholinesterase / cholinesterase / cholinesterase / brain (regional) cholinesterase (che) + cholinesterase / cholinesterase / cholinesterase…
[23] = group: systemic, systemic / pathology microscopic / seminal vesicle / colloid content

COC(=O)c1c(C(F)F)nc(C(F)(F)F)c(C2=NCCS2)c1CC(C)C [Thiazopyr] showed an LEL [1] of 68 mg/kg/day, an LOAEL [1] of 68 mg/kg/day and an NEL [1] of 6.6 mg/kg/day. The NOAEL [1] was 6.6 mg/kg/day, the LOAEL [2, 10] was 44.2 mg/kg/day and the NOAEL [2, 10] was 4.4 mg/kg/day. It also gave an LEL [2, 11] of 5.6 mg/kg/day, an NEL [2, 11] of 0.6 mg/kg/day and an LOAEL ([3]; systemic / pathology microscopic / liver / hyperplasia + systemic / pathology microscopic / liver / hypertrophy) of 7.8 mg/kg/day. It also gave an LEL [3, 12] of 7.8 mg/kg/day, an NEL [3, 12] of 0.8 mg/kg/day and an NOAEL [3, 12] of 0.8 mg/kg/day. It also gave an LEL [4, 13] of 250 mg/kg/day, an LOAEL [4, 13] of 250 mg/kg/day and an NEL [4, 13] of 100 mg/kg/day. For the same compound, the NOAEL [4, 13] was 100 mg/kg/day, the LOAEL [4, 14] was 250 mg/kg/day and the NEL [4, 14] was 10 mg/kg/day. For the same compound, the NOAEL [4, 14] was 100 mg/kg/day, the LEL ([4]; group: maternal, systemic / organ weight / liver / nos) was 100 mg/kg/day and the LOAEL ([5]; systemic / in life observation / body weight / body weight gain) was 3 mg/kg/day. For the same compound, the NEL [5, 15] was 2 mg/kg/day, the NOAEL [5, 15] was 2 mg/kg/day and the LEL ([5]; systemic / in life observation / body weight / body weight gain + systemic / clinical chemistry / albumin-globulin ratio / albumin-globulin …) was 3 mg/kg/day.
CCOP(=S)(Oc1cnc(C(C)(C)C)nc1)OC(C)C (configuration not stated) [Tebupirimfos] showed an LEL [6, 16] of 0.3 mg/kg/day, an LOAEL [6, 16] of 0.3 mg/kg/day and an NEL [6, 16] of 0.1 mg/kg/day. For the same compound, the NOAEL [6, 16] was 0.1 mg/kg/day, the LOAEL ([6]; group: maternal, reproductive / reproductive performance / resorptions / resorptions + reproductive / offspring survival early / live fetuses / live fetuses) was 0.3 mg/kg/day and the LEL ([6]; group: maternal, reproductive / reproductive performance / resorptions / resorptions + reproductive / offspring survival early / live fetuses / live fetuses…) was 0.3 mg/kg/day. It also gave an NEL [6, 17] of 0.1 mg/kg/day, an NOAEL [6, 17] of 0.1 mg/kg/day and an LEL [7, 18] of 0.005 mg/kg/day. The NEL [7, 18] was < 0.005 mg/kg/day, the LOAEL [7, 19] was 0.125 mg/kg/day and the NOAEL [7, 19] was 0.02 mg/kg/day. For the same compound, the LEL [8, 16] was 0.16 mg/kg/day, the LOAEL [8, 16] was 0.16 mg/kg/day and the NEL [8, 16] was < 0.16 mg/kg/day. The NOAEL [8, 16] was < 0.16 mg/kg/day, the LOAEL [8, 20] was 38.8 mg/kg/day and the NOAEL [8, 20] was 4.53 mg/kg/day. The LEL [8, 21] was 0.52 mg/kg/day, the NEL [8, 21] was < 0.52 mg/kg/day and the LOAEL [9, 22] was 1 mg/kg/day. For the same compound, the NEL [9, 22] was 0.2 mg/kg/day, the NOAEL [9, 22] was 0.3 mg/kg/day and the LEL [9, 16] was 0.3 mg/kg/day. For the same compound, the LOAEL ([9]; group: systemic, systemic / in life observation / body weight / body weight gain + systemic / in life observation / food consumption / food consumption) was 3.6 mg/kg/day, the NOAEL ([9]; group: systemic, systemic / in life observation / body weight / body weight gain + systemic / in life observation / food consumption / food consumption + …) was 1 mg/kg/day and the LEL [9, 23] was 0.2 mg/kg/day. The NEL [9, 23] was < 0.2 mg/kg/day.

From EPA's ToxRefDB 2
